Reference: US9133104B2 (Chroma Therapeutics Ltd., priority 2005, dated 2015)

What was measured:
[1] = target: T1, histone deacetylase activity (HeLa nuclear extract); assay: HDAC fluorescent activity assay (Biomol Fluor de Lys), HeLa nuclear extract; assay type: biochemical; details: Fluor de Lys substrate, IC50 range
T1 construct: Histone deacetylase activity from crude nuclear extract derived from HeLa cells was used for screening
How it was run: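 Crude HeLa nuclear extract (20 mM Hepes, 100 mM KCl, 0.2 mM EDTA, 0.5 mM DTT, 0.2 mM PMSF, 20% glycerol) incubated with acetyl-lysine Fluor de Lys substrate ± inhibitor; developer generates fluorophore. Background-subtracted % of vehicle control; IC50 from eight-point variable-slope sigmoidal fit.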

Hela cancer cell line = assay: Cell inhibition assay (SRB cell viability), Hela; assay type: cell-based; details: Homo sapiens, HeLa, 72 h, Hela cells, IC50 range
How it was run: (§1)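 Log-phase Hela, U937 and HUT cells were seeded at 1000 cells/well, grown 24 h, then exposed to compound (20 uM final) for 72 h. Viability was read by sulphorhodamine B staining and expressed as % inhibition relative to DMSO control. IC50 values came from sigmoidal variable-slope fits of eight concentrations.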

U937 cancer cell line = assay: Cell inhibition assay (SRB cell viability), U937; assay type: cell-based; details: Homo sapiens, U-937, U937 cells, 72 h, IC50 range
How it was run: as §1

HUT cancer cell line = assay: Cell inhibition assay (SRB cell viability), HUT; assay type: cell-based; details: HUT cells, 72 h, IC50 range
How it was run: as §1

CC(C)(C)SC[C@H](NCc1ccc(CNCc2ccc3cc(C(=O)NO)sc3c2)cc1)C(=O)OC1CCCC1 [Compound 113, (R)-3-tert-Butylsulfanyl-2-(4-{[(2-hydroxycarbamoyl-benzo[b]thiophen-6-ylmethyl)-amino]-methyl}-benzylamino)-propionic acid cyclopentyl ester]
IC50 [1]: 101 to 1000 nM | IC50 (Hela cancer cell line): 330 to 3300 nM | IC50 (U937 cancer cell line): 330 to 3300 nM | IC50 (HUT cancer cell line): 330 to 3300 nM

CC(C)C[C@H](NC(=O)c1ccc(NC(=O)CCCCCCC(=O)NO)cc1)C(=O)OC1CCCC1 [Compound 98, (S)-2-[4-(7-Hydroxycarbamoyl-heptanoylamino)-benzoylamino]-4-methyl-pentanoic acid cyclopentyl ester]
IC50 [1]: 101 to 1000 nM | IC50 (Hela cancer cell line): 330 to 3300 nM | IC50 (U937 cancer cell line): 330 to 3300 nM | IC50 (HUT cancer cell line): 330 to 3300 nM

CC(C)(C)OC(=O)[C@@H](NC(=O)[C@H]1Cc2c([nH]c3ccccc23)CN1C(=O)CCCCCCC(=O)NO)c1ccccc1 [Compound 19, (S)-{[(R)-2-(7-Hydroxycarbamoyl-heptanoyl)-2,3,4,9-tetrahydro-1H-beta-carboline-3-carbonyl]-amino}-phenyl-acetic acid tert-butyl ester]
IC50 [1]: 101 to 1000 nM | IC50 (Hela cancer cell line): 330 to 3300 nM | IC50 (U937 cancer cell line): 330 to 3300 nM | IC50 (HUT cancer cell line): 330 to 3300 nM
